{"source": "patent US20150133524A1", "about": "“PYRUVATE DEHYROGENASE KINASES AS THERAEUTIC TARGETS FOR CANCER AND ISCHEMIC DISEASES” (THE JOHNS HOPKINS UNIVERSITY, priority 2004, published 2015)", "key": {"Hif1a−/− MEFs [1]": {"tested_on": "Hif1a−/− MEFs", "test": "Cell proliferation assay (viable cell count) of Hif1a−/− MEFs"}, "P493-6 cells": {"tested_on": "P493-6 cells", "test": "Growth curves of P493-6 cells electroporated with siRNA", "assay_type": "cell-based, human", "settings": "100 nM siRNA electroporated; hypoxia (0.1% O2); versus scrambled control siRNA; FIG. 4B", "experimental": "siRNA targeting human PDK1 was designed and purchased from Dharmacon Research Inc (Lafayette, Colo.). 3×10^6 P493-6 cells were electroporated (1500 uF and 240 volts) with 100 nM of PDK1 siRNA (5′-CUACAUGAGUCGCAUUUCAdTdT-3′) (SEQ ID NO: 1). or scrambled control siRNA (5′-CACGCUCGGUCAAAAGGUUdTdT-3′) (SEQ ID NO: 7). in a 4 mm cuvette (BTX) using a Gene Pulser Xcell (Bio-Rad, Hercules, Calif.). The following day, 5×10^5 viable cells were subjected to hypoxic exposure (0.1% O2). At indicated times, viable cells were counted for growth curve, and the cellular proteins were harvested for Western blot analysis."}, "PDK1": {"tested_on": "PDK1", "test": "Immunoblot of PDK1 protein expression in P493-6 cells", "assay_type": "cell-based, human", "settings": "for PDK1 expression: P493-6 cells after electroporation with 100 nM siRNA, FIG. 4A"}, "Hif1a−/− MEFs [2]": {"tested_on": "Hif1a−/− MEFs"}}, "note": "Like-named read-outs stand apart in the source and are kept apart here."}
{"compound": "CO/C(=C/C(N)=O)[C@H](C)[C@H](/C=C/c1csc(-c2csc([C@@H](C)/C=C/C=C/C(C)C)n2)n1)OC", "note": "[myxothiazol]", "values": [{"measurement": "toxicity to normoxic and hypoxic Hif1a−/− MEFs", "setting": "Hif1a−/− MEFs [1]; both normoxic and hypoxic cells", "result": "toxic"}]}
{"compound": "5′-CUACAUGAGUCGCAUUUCAdTdT-3′ (dTdT overhang, complementary strand not cited, chemistry not fully specified) [PDK1 siRNA, siRNA targeting human PDK1, designed and purchased from Dharmacon]", "values": [{"measurement": "growth of P493-6 cells in hypoxia", "setting": "P493-6 cells", "result": "impaired"}, {"measurement": "PDK1 expression", "setting": "PDK1", "result": "reduced"}]}
{"compound": "[Cl-].[Cl-].[Co+2]", "note": "[CoCl2]", "values": [{"measurement": "PDK1 levels", "setting": "PDK1", "result": "increased"}]}
{"compound": "C=C(C)[C@H]1Cc2c(ccc3c2O[C@@H]2COc4cc(OC)c(OC)cc4[C@@H]2C3=O)O1", "note": "[Rotenone, rotenone]", "values": [{"measurement": "rescue (growth) of hypoxic Hif1a−/− mouse embryo fibroblasts", "setting": "Hif1a−/− MEFs [1]; 0.1 μM rotenone, hypoxic (0.5% O2), FIG. 3D", "result": "able to rescue"}, {"measurement": "proliferation of normoxic Hif1a−/− MEFs", "setting": "Hif1a−/− MEFs [1]; 0.1 μM rotenone, normoxic (20% O2), FIG. 3D", "result": "inhibited proliferation"}]}
{"compound": "antimycin A", "values": [{"measurement": "toxicity to normoxic and hypoxic Hif1a−/− MEFs", "setting": "Hif1a−/− MEFs [2]", "result": "toxic"}]}
{"compound": "5′-CACGCUCGGUCAAAAGGUUdTdT-3′ (dTdT overhang, complementary strand not cited, chemistry not fully specified) [scrambled control siRNA]", "values": [{"measurement": "PDK1 expression", "setting": "PDK1", "result": "did not reduce PDK1 expression"}]}
